test system: 817829-284-R-J1-PDC complex spheroids, viability; assay: Anticancer human tumor 817829-284-R-J1-PDC patient-derived colon adenocarcinoma cell line growth inhibition [GQUAD]; settings: second compound 10 µM; first compound 0.0316 µM; stronger effect = lower value
Method in brief: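 Multi-cell-type spheroids of tumor cells with HUVEC and mesenchymal stem cells, treated with drug combinations. Concentrations descend in half-log steps from near clinical Cmax, or from 10 microM where Cmax is unknown; viability read-out.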
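Further: spheroids exposed to agents for 7 days before readout; percent viability relative to DMSO vehicle control taken as 100%.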

Row | SMILES | viability, T/C [%]
1 | O=C(c1cc(Cc2n[nH]c(=O)c3ccccc23)ccc1F)N1CCN(C(=O)C2CC2)CC1 + Cc1cnc(CNC(=O)c2c(=O)c3ccc(N4CCCN(C)CC4)nc3n3c2sc2ccccc23)cn1 | 0.17
2 | O=c1[nH]cc(F)c(=O)[nH]1 + Cc1cnc(CNC(=O)c2c(=O)c3ccc(N4CCCN(C)CC4)nc3n3c2sc2ccccc23)cn1 | 0.08

same assay, conditions: second compound 10 µM; first compound 0.1 µM; stronger effect = lower value

Row | SMILES | viability, T/C [%]
3 | COc1ncnc(C2CC2)c1-c1ncc2cnn(Cc3ccc(-c4nc(C(F)(F)F)cn4C(C)C)cc3)c2n1 + Cc1[nH]c2ccc(F)cc2c1-c1nc2c3cccnc3c3ncccc3c2[nH]1 | 26.4
4 | C=CC(=O)N1CCN(c2nc(=O)n(-c3c(C)ccnc3C(C)C)c3nc(-c4c(O)cccc4F)c(F)cc23)C(C)C1 (configuration not stated) + Cc1cnc(CNC(=O)c2c(=O)c3ccc(N4CCCN(C)CC4)nc3n3c2sc2ccccc23)cn1 | 0.21
5 | CC(C)n1c(=O)n(C)c2cnc3cc(F)c(-c4ccc(OCCCN5CCCCC5)nc4)cc3c21 + Cc1cnc(CNC(=O)c2c(=O)c3ccc(N4CCCN(C)CC4)nc3n3c2sc2ccccc23)cn1 | 0.17
6 | COc1ccc([C@@H](O)c2cc(-c3ncnc4cc(N5CCOCC5)ccc34)c(F)cc2Cl)nn1 + Cc1cnc(CNC(=O)c2c(=O)c3ccc(N4CCCN(C)CC4)nc3n3c2sc2ccccc23)cn1 | 0.16
7 | Nc1ccn(C2OC(CO)C(O)C2(F)F)c(=O)n1 (configuration not stated) + Cc1cnc(CNC(=O)c2c(=O)c3ccc(N4CCCN(C)CC4)nc3n3c2sc2ccccc23)cn1 | 0.13
8 | O=C(c1cc(Cc2n[nH]c(=O)c3ccccc23)ccc1F)N1CCN(C(=O)C2CC2)CC1 + Cc1cnc(CNC(=O)c2c(=O)c3ccc(N4CCCN(C)CC4)nc3n3c2sc2ccccc23)cn1 | 0.18
9 | O=c1[nH]cc(F)c(=O)[nH]1 + Cc1cnc(CNC(=O)c2c(=O)c3ccc(N4CCCN(C)CC4)nc3n3c2sc2ccccc23)cn1 | 0.13

same assay, conditions: second compound 10 µM; first compound 0.316 µM; stronger effect = lower value

Row | SMILES | viability, T/C [%]
10 | COc1ncnc(C2CC2)c1-c1ncc2cnn(Cc3ccc(-c4nc(C(F)(F)F)cn4C(C)C)cc3)c2n1 + Cc1[nH]c2ccc(F)cc2c1-c1nc2c3cccnc3c3ncccc3c2[nH]1 | 27.8
11 | C=CC(=O)N1CCN(c2nc(=O)n(-c3c(C)ccnc3C(C)C)c3nc(-c4c(O)cccc4F)c(F)cc23)C(C)C1 (configuration not stated) + Cc1cnc(CNC(=O)c2c(=O)c3ccc(N4CCCN(C)CC4)nc3n3c2sc2ccccc23)cn1 | 0.19
12 | CC(C)n1c(=O)n(C)c2cnc3cc(F)c(-c4ccc(OCCCN5CCCCC5)nc4)cc3c21 + Cc1cnc(CNC(=O)c2c(=O)c3ccc(N4CCCN(C)CC4)nc3n3c2sc2ccccc23)cn1 | 0.18
13 | COc1ccc([C@@H](O)c2cc(-c3ncnc4cc(N5CCOCC5)ccc34)c(F)cc2Cl)nn1 + Cc1cnc(CNC(=O)c2c(=O)c3ccc(N4CCCN(C)CC4)nc3n3c2sc2ccccc23)cn1 | 0.18
14 | Nc1ccn(C2OC(CO)C(O)C2(F)F)c(=O)n1 (configuration not stated) + Cc1cnc(CNC(=O)c2c(=O)c3ccc(N4CCCN(C)CC4)nc3n3c2sc2ccccc23)cn1 | 0.12
15 | O=C(c1cc(Cc2n[nH]c(=O)c3ccccc23)ccc1F)N1CCN(C(=O)C2CC2)CC1 + Cc1cnc(CNC(=O)c2c(=O)c3ccc(N4CCCN(C)CC4)nc3n3c2sc2ccccc23)cn1 | 0.22
16 | O=c1[nH]cc(F)c(=O)[nH]1 + Cc1cnc(CNC(=O)c2c(=O)c3ccc(N4CCCN(C)CC4)nc3n3c2sc2ccccc23)cn1 | 0.17

same assay, conditions: second compound 10 µM; first compound 1 µM; stronger effect = lower value

Row | SMILES | viability, T/C [%]
17 | COc1ncnc(C2CC2)c1-c1ncc2cnn(Cc3ccc(-c4nc(C(F)(F)F)cn4C(C)C)cc3)c2n1 + Cc1[nH]c2ccc(F)cc2c1-c1nc2c3cccnc3c3ncccc3c2[nH]1 | 40.9
18 | C=CC(=O)N1CCN(c2nc(=O)n(-c3c(C)ccnc3C(C)C)c3nc(-c4c(O)cccc4F)c(F)cc23)C(C)C1 (configuration not stated) + Cc1cnc(CNC(=O)c2c(=O)c3ccc(N4CCCN(C)CC4)nc3n3c2sc2ccccc23)cn1 | 0.19
19 | CC(C)n1c(=O)n(C)c2cnc3cc(F)c(-c4ccc(OCCCN5CCCCC5)nc4)cc3c21 + Cc1cnc(CNC(=O)c2c(=O)c3ccc(N4CCCN(C)CC4)nc3n3c2sc2ccccc23)cn1 | 0.17
20 | COc1ccc([C@@H](O)c2cc(-c3ncnc4cc(N5CCOCC5)ccc34)c(F)cc2Cl)nn1 + Cc1cnc(CNC(=O)c2c(=O)c3ccc(N4CCCN(C)CC4)nc3n3c2sc2ccccc23)cn1 | 0.23
21 | Nc1ccn(C2OC(CO)C(O)C2(F)F)c(=O)n1 (configuration not stated) + Cc1cnc(CNC(=O)c2c(=O)c3ccc(N4CCCN(C)CC4)nc3n3c2sc2ccccc23)cn1 | 0.12
22 | O=C(c1cc(Cc2n[nH]c(=O)c3ccccc23)ccc1F)N1CCN(C(=O)C2CC2)CC1 + Cc1cnc(CNC(=O)c2c(=O)c3ccc(N4CCCN(C)CC4)nc3n3c2sc2ccccc23)cn1 | 0.2
23 | O=c1[nH]cc(F)c(=O)[nH]1 + Cc1cnc(CNC(=O)c2c(=O)c3ccc(N4CCCN(C)CC4)nc3n3c2sc2ccccc23)cn1 | 0.14

same assay, conditions: second compound 10 µM; first compound 3.16 µM; stronger effect = lower value

Row | SMILES | viability, T/C [%]
24 | COc1ncnc(C2CC2)c1-c1ncc2cnn(Cc3ccc(-c4nc(C(F)(F)F)cn4C(C)C)cc3)c2n1 + Cc1[nH]c2ccc(F)cc2c1-c1nc2c3cccnc3c3ncccc3c2[nH]1 | 15.1
25 | C=CC(=O)N1CCN(c2nc(=O)n(-c3c(C)ccnc3C(C)C)c3nc(-c4c(O)cccc4F)c(F)cc23)C(C)C1 (configuration not stated) + Cc1cnc(CNC(=O)c2c(=O)c3ccc(N4CCCN(C)CC4)nc3n3c2sc2ccccc23)cn1 | 0.2
26 | CC(C)n1c(=O)n(C)c2cnc3cc(F)c(-c4ccc(OCCCN5CCCCC5)nc4)cc3c21 + Cc1cnc(CNC(=O)c2c(=O)c3ccc(N4CCCN(C)CC4)nc3n3c2sc2ccccc23)cn1 | 0.18
27 | COc1ccc([C@@H](O)c2cc(-c3ncnc4cc(N5CCOCC5)ccc34)c(F)cc2Cl)nn1 + Cc1cnc(CNC(=O)c2c(=O)c3ccc(N4CCCN(C)CC4)nc3n3c2sc2ccccc23)cn1 | 0.2
28 | Nc1ccn(C2OC(CO)C(O)C2(F)F)c(=O)n1 (configuration not stated) + Cc1cnc(CNC(=O)c2c(=O)c3ccc(N4CCCN(C)CC4)nc3n3c2sc2ccccc23)cn1 | 0.14
29 | O=C(c1cc(Cc2n[nH]c(=O)c3ccccc23)ccc1F)N1CCN(C(=O)C2CC2)CC1 + Cc1cnc(CNC(=O)c2c(=O)c3ccc(N4CCCN(C)CC4)nc3n3c2sc2ccccc23)cn1 | 0.22
30 | O=c1[nH]cc(F)c(=O)[nH]1 + Cc1cnc(CNC(=O)c2c(=O)c3ccc(N4CCCN(C)CC4)nc3n3c2sc2ccccc23)cn1 | 0.19

same assay, conditions: second compound 10 µM; first compound 10 µM; stronger effect = lower value

Row | SMILES | viability, T/C [%]
31 | COc1ncnc(C2CC2)c1-c1ncc2cnn(Cc3ccc(-c4nc(C(F)(F)F)cn4C(C)C)cc3)c2n1 + Cc1[nH]c2ccc(F)cc2c1-c1nc2c3cccnc3c3ncccc3c2[nH]1 | 18.8
32 | C=CC(=O)N1CCN(c2nc(=O)n(-c3c(C)ccnc3C(C)C)c3nc(-c4c(O)cccc4F)c(F)cc23)C(C)C1 (configuration not stated) + Cc1cnc(CNC(=O)c2c(=O)c3ccc(N4CCCN(C)CC4)nc3n3c2sc2ccccc23)cn1 | 0.19
33 | CC(C)n1c(=O)n(C)c2cnc3cc(F)c(-c4ccc(OCCCN5CCCCC5)nc4)cc3c21 + Cc1cnc(CNC(=O)c2c(=O)c3ccc(N4CCCN(C)CC4)nc3n3c2sc2ccccc23)cn1 | 0.18
34 | COc1ccc([C@@H](O)c2cc(-c3ncnc4cc(N5CCOCC5)ccc34)c(F)cc2Cl)nn1 + Cc1cnc(CNC(=O)c2c(=O)c3ccc(N4CCCN(C)CC4)nc3n3c2sc2ccccc23)cn1 | 0.19
35 | Nc1ccn(C2OC(CO)C(O)C2(F)F)c(=O)n1 (configuration not stated) + Cc1cnc(CNC(=O)c2c(=O)c3ccc(N4CCCN(C)CC4)nc3n3c2sc2ccccc23)cn1 | 0.15
36 | O=C(c1cc(Cc2n[nH]c(=O)c3ccccc23)ccc1F)N1CCN(C(=O)C2CC2)CC1 + Cc1cnc(CNC(=O)c2c(=O)c3ccc(N4CCCN(C)CC4)nc3n3c2sc2ccccc23)cn1 | 0.21
37 | O=c1[nH]cc(F)c(=O)[nH]1 + Cc1cnc(CNC(=O)c2c(=O)c3ccc(N4CCCN(C)CC4)nc3n3c2sc2ccccc23)cn1 | 0.16

— PubChem BioAssay AID2060503 (Molecular Pharmacology Branch, DTP, NCI, 2025)
